Data as given in US20180221352A1, “3-(1H-PYRROLO[2,3-C]PYRIDIN-2-YL)-1H-PYRAZOLO[3,4-B]PYRIDINES AND THERAPEUTIC USES THEREOF” (Samumed, LLC, priority 2015, published 2018).

Key:
Type in all cases: cell-based
IL-6 = IL-6 inhibition in LPS-stimulated THP-1 cells (HTRF); conditions: Homo sapiens; for EC50: THP-1 cells, LPS 500 ng/mL, 22 hours, IL6 HTRF; for inhibition at 10 µM: THP-1, read-out: percent inhibition at 10 μM
Experimental: THP-1 cells were cultured in basal media with 1% FBS for 24 hours before the start of the assay. […] THP-1 cells were plated at 5000 cells/well in the 384-well plates and incubated at 37° C. for 2 h. 500 ng/mL of LPS was added after 2 hours and cells were incubated for another 22 hours at 37° C. Plates were spun in a centrifuge for 1 minute at […] and a mixture of anti-IL6 XL665, and anti-IL6 Cryptate diluted in reconstitution buffer (Cisbio Inc.) was added to each well. Following incubation for 3 hrs at room temperature, Homogeneous Time-Resolved Fluorescence (HTRF) was measured using the Envision (Perkin Elmer) at 665 nm and […]. The ratio of fluorescence at 665 nm to 620 nm was used as a readout for IL6 quantification. All samples were processed in duplicate. Readings were normalized to DMSO treated cells and normalized activities were utilized for EC50 calculations using the dose-response log (inhibitor) vs. response−variable slope (four parameters) nonlinear regression feature available in GraphPad Prism 5.0 (or Dotmatics).

SW480 colon cancer cells = test: Cell viability assay (CellTiter-Blue); conditions: Homo sapiens, 96 h; SW480 cell viability, four days
Experimental: Representative compounds were screened using the following assay procedure to assess the effect on cell viability as described below.
Approximately 2×10^3 SW480 colon cancer cells were seeded into each well and allowed to incubate in the presence or absence of compound for four days at 37° C./5% CO2. Eight replicates of DMSO-treated cells served as controls and cells treated with compound were performed in duplicate.
After incubation, 20 μL of CellTiter-Blue (Promega) was added to each well allowed to incubate for approximately 3 hours. This reagent was a buffered solution which contains resazurin, metabolically active cells were able to reduce rezarurin (blue) into resorufin (pink) which was highly fluorescent. This measured fluorescence was used as a readout for cell viability.

[1] = test system: Wnt activity (Sp5-Luc reporter, SW480 colon carcinoma cells); test: Wnt activity screening assay, Sp5-Luc reporter gene in SW480 cells; conditions: Homo sapiens; for EC50: Sp5-Luc reporter, SW480 cells, overnight incubation
From the text: The screening assay for Wnt activity is described as follows. Reporter cell lines can be generated by stably transducing cancer cell lines (e.g., colon cancer) or primary cells (e.g., IEC-6 intestinal cells) with a lentiviral construct that includes a Wnt-responsive promoter driving expression of the firefly luciferase gene.
SW480 colon carcinoma cells were transduced with a lentiviral vector expressing luciferase with a human Sp5 promoter consisting of a sequence of eight TCF/LEF binding sites. SW480 cells stably expressing the Sp5-Luc reporter gene and a hygromycin resistance gene were selected by treatment with 150 μg/mL of hygromycin for 7 days. These stably transduced SW480 cells were expanded in cell culture and used for all further screening activities. […] For Sp5-Luc reporter gene assays, the cells were plated at 4,000 cells/well in 384-well plates with medium containing 1% fetal bovine serum and incubated overnight at 37° C. and 5% CO2. Following incubation, 20 μl of BrightGlo luminescence reagent (Promega) was added to each well of the 384-well assay plates. The plates were placed on an orbital shaker for 2 min and then luminescence was quantified using the Envision (Perkin Elmer) plate reader. Readings were normalized to DMSO only treated cells, and normalized activities were utilized for EC50 calculations using the dose-response log (inhibitor) vs. response−variable slope (four parameters) nonlinear regression feature available in GraphPad Prism 5.0 (or Dotmatics).

[2] = test system: primary human fibroblasts derived from IPF patients (LL29 cells); test: Inhibition of fibrotic process, αSMA staining in TGF-β1 treated fibroblasts; conditions: Fibroblast, 96 h, LL29 cells, TGF-β1 20 ng/mL, 4 days, % αSMA positive cells
Experimental: Representative compounds were screened using primary human fibroblasts (derived from IPF patients) treated with TGF-β1 to determine their ability to inhibit the fibrotic process.
LL29 cells are plated at 1,500 cells/well in 80 μL/well F12 medium supplemented with 1% Fetal Bovine Serum. […] Wells treated with TGF-31 and containing DMSO were used as controls. […] Following incubation for 4 days, SYTOX green nucleic acid stain (Life Technologies [Thermo Fisher Scientific]) was added to the wells at a final concentration of 1 μM and incubated at room temperature for 30 min.

[3] = test system: primary human mesenchymal stem cells (hMSCs); test: Induction of chondrogenesis in hMSCs (nodule count); conditions: 6 days; for EC50: concentration required to induce 50% levels of chondrogenesis vs TGF-β3, read-out: Conc (nM) of 50% TGF-β3 activity; for Emax: relative to TGF-β3 (10 ng/mL) positive control, read-out: Max. Activity as % TGF-β3 activity
From the text: Representative compounds were screened using primary human mesenchymal stem cells (hMSCs) to determine their ability to induce chondrogenesis (process by which cartilage is developed).
Primary human mesenchymal stem cells (hMSCs) were purchased from Lonza (Walkersville, Md.) and expanded in Mesenchymal Stem Cell Growth Media (Lonza). Cells between passage 3 and 6 were used for the experiments.
To image chondrogenic nodules, the cells were fixed using 4% formaldehyde (Electron Microscopy Sciences), and stained with 2 μg/mL Rhodamine B (Sigma-Aldrich) and 20 μM Nile Red (Sigma-Aldrich) [Johnson K., et. al, A Stem Cell-Based Approach to Cartilage Repair, Science, (2012). […] Number of nodules in each well was normalized to the average of 3 DMSO treated wells on the same plate using Excel (Microsoft Inc.). The normalized averages (fold change over DMSO) of 3 replicate wells for each compound concentration were calculated. Due to solubility limitations of some of the compounds, curve fitting was incomplete leading to inaccurate EC50 determinations.
Using TGF-β3 as a positive control, the concentration of representative compounds required to induce 50% levels of chondrogenesis is reported. In addition, the maximum activity of each compound and the respective dose that each compound reached maximum chondrogenesis activity is reported.

Compound	EC50 (IL-6)	EC50 (SW480 colon cancer cells)	EC50 [1]	EC50 [3]	EC50 [2]	Emax [3]	inhibition at 10 µM (IL-6)	inhibition at 10 µM ([1]; SW480, read-out: percent inhibition at 10 μM)
CCC(=O)Nc1cncc(-c2cnc3[nH]nc(-c4cc5c(-c6cccc(F)c6)cncc5[nH]4)c3c2)c1 [Compound 1, N-(5-(3-(4-(3-Fluorophenyl)-1H-pyrrolo[2,3-c]pyridin-2-yl)-1H-pyrazolo [3,4-b]pyridin-5-yl)pyridin-3-yl)propionamide]	1180 nM	771 nM	246 nM	10 nM	859 nM	113%		
Fc1cccc(-c2cncc3[nH]c(-c4n[nH]c5ncc(-c6cccnc6)cc45)cc23)c1 [Compound 4, 3-(4-(3-Fluorophenyl)-1H-pyrrolo[2,3-c]pyridin-2-yl)-5-(pyridin-3-yl)-1H-pyrazolo[3,4-b]pyridine]	232 nM	1070 nM	572 nM		1010 nM	36%		
CC(C)Nc1cncc(-c2cnc3[nH]nc(-c4cc5c(-c6cccc(F)c6)cncc5[nH]4)c3c2)c1 [Compound 12, 5-(3-(4-(3-Fluorophenyl)-1H-pyrrolo[2,3-c]pyridin-2-yl)-1H-pyrazolo[3,4-b]pyridin-5-yl)-N-isopropylpyridin-3-amine]	148 nM	851 nM	238 nM	900 nM	713 nM	104%		
Fc1cccc(-c2cncc3[nH]c(-c4n[nH]c5ncc(-c6cncc(CNCc7ccccc7)c6)cc45)cc23)c1 [Compound 24, N-Benzyl-1-(5-(3-(4-(3-fluorophenyl)-1H-pyrrolo[2,3-c]pyridin-2-yl)-1H-pyrazolo[3,4-b]pyridin-5-yl)pyridin-3-yl)methanamine]	2090 nM	2800 nM	3920 nM	900 nM	1280 nM	65%		
CCNCc1cncc(-c2cnc3[nH]nc(-c4cc5c(-c6ccccc6F)cncc5[nH]4)c3c2)c1 [Compound 62, N-((5-(3-(4-(2-Fluorophenyl)-1H-pyrrolo[2,3-c]pyridin-2-yl)-1H-pyrazolo [3,4-b]pyridin-5-yl)pyridin-3-yl)methyl)ethanamine]	9080 nM	1910 nM	2300 nM		2670 nM	37%		
CC(C)C(=O)Nc1cncc(-c2cnc3[nH]nc(-c4cc5c(-c6ccccc6F)cncc5[nH]4)c3c2)c1 [Compound 65, N-(5-(3-(4-(2-Fluorophenyl)-1H-pyrrolo[2,3-c]pyridin-2-yl)-1H-pyrazolo [3,4-b]pyridin-5-yl)pyridin-3-yl)isobutyramide]	1440 nM	2860 nM	2090 nM		2390 nM	45%		
CN(C)Cc1cncc(-c2cnc3[nH]nc(-c4cc5c(-c6ccccc6F)cncc5[nH]4)c3c2)c1 [Compound 69, 1-(5-(3-(4-(2-Fluorophenyl)-1H-pyrrolo[2,3-c]pyridin-2-yl)-1H-pyrazolo [3,4-b]pyridin-5-yl)pyridin-3-yl)-N,N-dimethylmethanamine]	131 nM	1050 nM	2490 nM	30 nM	1890 nM	61%		
O=C(Nc1cncc(-c2cnc3[nH]nc(-c4cc5c(-c6ccccc6F)cncc5[nH]4)c3c2)c1)C1CC1 [Compound 76, N-(5-(3-(4-(2-Fluorophenyl)-1H-pyrrolo[2,3-c]pyridin-2-yl)-1H-pyrazolo [3,4-b]pyridin-5-yl)pyridin-3-yl)cyclopropanecarboxamide]	> 10000 nM	292 nM	390 nM	10 nM	110 nM	52%	22%	
Cc1ccncc1-c1cnc2[nH]nc(-c3cc4c(-c5cccnc5)cncc4[nH]3)c2c1 [Compound 89, 5-(4-Methylpyridin-3-yl)-3-(4-(pyridin-3-yl)-1H-pyrrolo[2,3-c]pyridin-2-yl)-1H-pyrazolo[3,4-b]pyridine]	3440 nM	3290 nM	2250 nM		1480 nM	17%		

More lines, main results first:

EC50 (IL-6)	EC50 (SW480 colon cancer cells)	EC50 [1]	EC50 [3]	Compound	EC50 [2]	Emax [3]	inhibition at 10 µM (IL-6)	inhibition at 10 µM ([1]; SW480, read-out: percent inhibition at 10 μM)
> 10000 nM	3260 nM	3120 nM	10 nM	Fc1cccc(-c2cncc3[nH]c(-c4n[nH]c5ncc(-c6cncc(CN7CCCCC7)c6)cc45)cc23)c1 [Compound 15, 3-(4-(3-Fluorophenyl)-1H-pyrrolo[2,3-c]pyridin-2-yl)-5-(5-(piperidin-1-ylmethyl)pyridin-3-yl)-1H-pyrazolo[3,4-b]pyridine]	1970 nM	108%	41%	
> 10000 nM	2090 nM	> 10000 nM	10 nM	Cc1ccncc1-c1cnc2[nH]nc(-c3cc4c(-c5ccc(F)cc5)cncc4[nH]3)c2c1 [Compound 33, 3-(4-(4-Fluorophenyl)-1H-pyrrolo[2,3-c]pyridin-2-yl)-5-(4-methylpyridin-3-yl)-1H-pyrazolo[3,4-b]pyridine]	1040 nM	67%	26.1%	49.4%
3270 nM	940 nM	2140 nM	2700 nM	Fc1ccc(-c2cncc3[nH]c(-c4n[nH]c5ncc(-c6cncc(CN7CCCC7)c6)cc45)cc23)cc1 [Compound 42, 3-(4-(4-Fluorophenyl)-1H-pyrrolo[2,3-c]pyridin-2-yl)-5-(5-(pyrrolidin-1-ylmethyl)pyridin-3-yl)-1H-pyrazolo[3,4-b]pyridine]	1290 nM	133%		
> 10000 nM	1130 nM	594 nM		Fc1ccc(-c2cncc3[nH]c(-c4n[nH]c5ncc(-c6cncnc6)cc45)cc23)cc1 [Compound 55, 3-(4-(4-Fluorophenyl)-1H-pyrrolo[2,3-c]pyridin-2-yl)-5-(pyrimidin-5-yl)-1H-pyrazolo[3,4-b]pyridine]	854 nM	24%	29.8%	
